According to patent US20230128137A1, “BENZO FIVE-MEMBERED CYCLIC COMPOUND” (MEDSHINE DISCOVERY INC., priority 2020, published 2023):
Values joined by “and” are separate entries in the source; they are usually repeats but may differ in a detail not shown here. Identical values can stand only once.

Experiments:
[1] = test system: human acute lymphoblastic leukemia cell RS4;11 graft tumor; test: In vivo anti-tumor effect, RS4;11 graft tumor model in BALB/c nude mice; parameters: species or system BALB/c nude mouse; conditions: for T/C (relative tumor proliferation rate) / TGI (tumor growth inhibition rate): based on tumor volume on day 32
Procedure: 5.1 Experimental animals: Balb/c nude mice, 32 mice, 7 to 8 weeks old, female;
5.2 tumor cells: human acute lymphoblastic leukemia cell line RS4;11, cultured in a suspension in vitro, and the culture conditions were RPMI-1640 culture medium containing 10% fetal bovine serum, cultured in a 5% CO2 incubator at 37° C. When the cells were in exponential growth period and the saturation was 80% to 90%, the cells were collected and counted;
5.3 cell seeding and grouping: the cells were resuspended in […], and the basement membrane matrigel was added in 1:1, and the mixture was mixed well, and the density was 5×10^7 cells/mL. 0.2 mL of cell suspension (containing 1×10^7 RS4;11 cells) was subcutaneously inoculated on the right back of each mouse, and when the average tumor volume reached about 120 mm^3, the drug was administered randomly according to the tumor volume;
5.4 preparation of the subject: an appropriate amount of compound 2 was weighed respectively, and the solvent formula was 2.5% dimethyl sulfoxide, 5% ethanol, 10% cremophor EL, 20% glucose solution (concentration of 5%), 62.5% water;
5.5 tumor-bearing mice divided into four groups (8 mice in each group) were given blank solvent, compound 2 (12.5 mpk, QD), compound 2 (25 mpk, QD) and compound 2 (50 mpk, QD), respectively;
5.6 tumor measurement and experimental indicators:
tumor diameters were measured with vernier calipers two times a week. The calculation formula of tumor volume is: V=0.5×a×b^2, a represents the long diameter of the tumor, and b represents the short diameter of the tumor. The tumor inhibition efficacy of the compounds was evaluated by TGI (%) or relative tumor proliferation rate T/C (%).
Relative tumor proliferation rate T/C %=TRTV/CRTV×100% (TRTV: RTV in the treatment group; CRTV: RTV in the negative control group). The relative tumor volume (RTV) is calculated according to the results of tumor measurement, and the formula is RTV=Vt/V0, where V0 is the tumor volume measured at the time of group administration (i.e., D0), and Vt is the tumor volume measured at a certain measurement, TRTV and CRTV were taken on the same day.
TGI (%), reflecting the tumor growth inhibition rate. The formula for calculating the tumor inhibition efficacy TGI is: […]

[2] = Liver microsome metabolic stability in vitro, CD-1 mouse; format: in vitro ADME; conditions: CD-1 mouse liver microsomes
Procedure: 3.2 preparation of nicotinamide adenine dinucleotide phosphate cofactor solution: an appropriate amount of NADPH powder was weighed and diluted into 10 mM magnesium chloride solution (working solution concentration: 10 unit/mL; final concentration of reaction system: 1 unit/mL);
3.3 preparation of liver microsomes: an appropriate concentration working solution of liver microsomes (human, SD rat, CD-1 mouse, beagle dog) was prepared in 100 mM potassium phosphate buffer;
3.4 preparation of quenching solution: cold (4° C.) acetonitrile containing 200 ng/mL tolbutamide and 200 ng/mL labetalol as internal standard (IS) was used as quenching solution;
3.5 experimental operation:
a. empty “incubation” plates T60 and NCF60 were preheated for 10 minutes;
b. the liver microsomes were diluted to 0.56 mg/mL with 100 mM phosphate buffer;
c. 445 μL of microsomal working solution (0.56 mg/mL) was transferred to the preheated “incubation” plates T60 and NCF60, and then the“incubation” plates T60 and NCF60 were preincubated for 10 min with continuous shaking at 37° C. 54 μL of liver microsomes were transferred to a blank plate, and 6 μL of NAPDH cofactor was added to the blank plate, and then 180 μL of quenching solution was added thereto;
e. for NCF60 plate, 50 μL of buffer was added thereto and the mixture was fully mixed for three times. Timing was started; the plate was shaken at 37° C. for 60 minutes;
f. in “quenching” plate TO, 180 μL of quenching solution and 6 μL of NAPDH cofactor were addded to make sure that the plate was cooled down to prevent evaporation;
g. for T60 plates, the mixture was fully mixed for three times, and 54 μL of mixture was immediately transferred to the “quenching” plate at the 0 min time point. 44 μL of NAPDH cofactor was then added to the culture plate (T60). Timing was started; the plate was shaken at 37° C. for 60 minutes;
h. at 5, 10, 20, 30 and 60 min, 180 μL of quenching solution was added to the “quenching” plate, and the mixture was mixed for one time, and 60 μL of sample was continuously transferred from the T60 plate to the “quenching” plate at each time point;
i. for NCF60: the mixture was mixed for one time, and 60 μL of sample was transferred from the NCF60 culture dish to the “quenching” plate containing quenching solution at 60 minutes time point;
j. all sampling plates were shaked for 10 minutes, then centrifuged at 4000 rpm for 20 minutes at 4° C.;
k. 60 μL of supernatant was transferred into 180 μL of HPLC water and stirred with a plate shaker for 10 min;
1. before LC-MS/MS analysis, each bioanalysis plate was sealed and shaked for 10 minutes.

CC1(C)CCC(CN2CCN(c3ccc(C(=O)NS(=O)(=O)c4cc([N+](=O)[O-])c(NCC5CCOCC5)c5[nH]cnc45)c(Oc4cnc5[nH]ccc5c4)c3)CC2)=C(c2ccc(Cl)cc2)C1 [Compound 2]
animal state during the experiment ([1]; 12.5, 25, 50 mpk, QD): normal
T/C (relative tumor proliferation rate) ([1]; 12.5 mpk, QD): 22.37%
TGI (tumor growth inhibition rate) ([1]; 12.5 mpk, QD): 82.12%
Tumor volume ([1]; 12.5 mpk, QD, day 1 after administration, mean ± SEM, n = 8): 114.44 ± 4.91 mm^3 and 114.44 mm^3
Tumor volume ([1]; 12.5 mpk, QD, day 4 after administration): 124.75 ± 10.85 mm^3
Tumor volume ([1]; 12.5 mpk, QD, day 6 after administration): 120.60 ± 12.60 mm^3
Tumor volume ([1]; 12.5 mpk, QD, day 8 after administration): 124.22 ± 15.25 mm^3
Tumor volume ([1]; 12.5 mpk, QD, day 11 after administration): 126.73 ± 11.57 mm^3
Tumor volume ([1]; 12.5 mpk, QD, day 14 after administration): 145.41 ± 17.58 mm^3
Tumor volume ([1]; 12.5 mpk, QD, day 18 after administration): 198.17 ± 38.18 mm^3
Tumor volume ([1]; 12.5 mpk, QD, day 21 after administration): 209.63 ± 39.56 mm^3
Tumor volume ([1]; 12.5 mpk, QD, day 25 after administration): 254.52 ± 52.29 mm^3
Tumor volume ([1]; 12.5 mpk, QD, day 28 after administration): 306.93 ± 66.01 mm^3
Tumor volume ([1]; 12.5 mpk, QD, day 32 after administration, mean ± SEM, n = 8): 365.13 ± 85.31 mm^3 and 365.13 mm^3
T/C (relative tumor proliferation rate) ([1]; 25 mpk, QD): 16.54%
TGI (tumor growth inhibition rate) ([1]; 25 mpk, QD): 89.15%
Tumor volume ([1]; 25 mpk, QD, day 1 after administration, mean ± SEM, n = 8): 114.50 ± 4.98 mm^3 and 114.50 mm^3
Tumor volume ([1]; 25 mpk, QD, day 4 after administration): 99.54 ± 6.66 mm^3
Tumor volume ([1]; 25 mpk, QD, day 6 after administration): 106.03 ± 13.15 mm^3
Tumor volume ([1]; 25 mpk, QD, day 8 after administration): 107.66 ± 15.62 mm^3
Tumor volume ([1]; 25 mpk, QD, day 11 after administration): 101.57 ± 15.87 mm^3
Tumor volume ([1]; 25 mpk, QD, day 14 after administration): 116.52 ± 28.85 mm^3
Tumor volume ([1]; 25 mpk, QD, day 18 after administration): 146.77 ± 44.03 mm^3
Tumor volume ([1]; 25 mpk, QD, day 21 after administration): 191.06 ± 69.68 mm^3
Tumor volume ([1]; 25 mpk, QD, day 25 after administration): 174.50 ± 58.56 mm^3
Tumor volume ([1]; 25 mpk, QD, day 28 after administration): 206.82 ± 76.64 mm^3
Tumor volume ([1]; 25 mpk, QD, day 32 after administration, mean ± SEM, n = 8): 266.63 ± 95.51 mm^3 and 266.63 mm^3
T/C (relative tumor proliferation rate) ([1]; 50 mpk, QD): 7.30%
TGI (tumor growth inhibition rate) ([1]; 50 mpk, QD): 100.27%
Tumor volume ([1]; 50 mpk, QD, day 1 after administration, mean ± SEM, n = 8): 114.18 ± 4.30 mm^3 and 114.18 mm^3
Tumor volume ([1]; 50 mpk, QD, day 4 after administration): 95.13 ± 7.43 mm^3
Tumor volume ([1]; 50 mpk, QD, day 6 after administration): 91.16 ± 6.08 mm^3
Tumor volume ([1]; 50 mpk, QD, day 8 after administration): 86.91 ± 4.92 mm^3
Tumor volume ([1]; 50 mpk, QD, day 11 after administration): 67.64 ± 3.93 mm^3
Tumor volume ([1]; 50 mpk, QD, day 14 after administration): 74.27 ± 6.37 mm^3
Tumor volume ([1]; 50 mpk, QD, day 18 after administration): 58.39 ± 6.94 mm^3
Tumor volume ([1]; 50 mpk, QD, day 21 after administration): 70.21 ± 8.91 mm^3
Tumor volume ([1]; 50 mpk, QD, day 25 after administration): 75.62 ± 10.30 mm^3
Tumor volume ([1]; 50 mpk, QD, day 28 after administration): 78.03 ± 9.52 mm^3
Tumor volume ([1]; 50 mpk, QD, day 32 after administration, mean ± SEM, n = 8): 110.37 ± 19.73 mm^3 and 110.37 mm^3
tumor inhibition effect (in words) ([1]; three dose groups (12.5, 25, 50 mpk, QD), obvious dose-dependence): significant tumor inhibition effect
CLint scaled at 1 µM [2]: 79.7 mL/min/kg
half-life at 1 µM [2]: 1.15 h
Remaining (T = 60 min) ([2]; 60 min incubation): 54.6%
